Earlier results, collected in patent EP1750675B1, “STABLE ORAL PHARMACEUTICAL COMPOSITIONS OF BUP[…] SALT THEREOF” (Galephar M/F, priority 2004, dated 2005).
Where a name gives a salt, the structure may show the parent alone. Read-outs that look alike come from different tables or passages of the source.

What was measured:
[1] = opioid agonist/antagonist
[2] = 20°C

Compound	potency relative to morphine [1]	solubility ([2]; in cyclohexane)	solubility ([2]; in ethanol)	solubility ([2]; in glacial acetic acid)	solubility ([2]; in water)	stability (at high temperatures (up to 120°C))	stability (in acid and alkaline conditions)	stability (in neutral solutions (pH 5-7))
CO[C@]12CC[C@@]3(C[C@@H]1[C@](C)(O)C(C)(C)C)[C@H]1Cc4ccc(O)c5c4[C@@]3(CCN1CC1CC1)[C@H]2O5 [Buprenorphine]	about forty times as potent as morphine							
CO[C@]12CC[C@@]3(C[C@@H]1[C@](C)(O)C(C)(C)C)[C@H]1Cc4ccc(O)c5c4[C@@]3(CCN1CC1CC1)[C@H]2O5 [buprenorphine hydrochloride, Buprenorphine hydrochloride]		~0.02 mg/mL	~42 mg/mL	more than 500 mg/ml	about 20 mg/ml	stable	significant degradation	stable
